Experimental data: ChEMBL document CHEMBL3244199, “6beta-[N,N-Bis(2-chloroethyl)amino]-17-(cyclopropylmethyl)-4,5alpha-epoxy-3,14-dihydroxymorphinan(chlornaltrexamine) a potent opioid receptor alkylating agent with ultralong narcotic antagonist actitivty” (J Med Chem, 1978)
Active and inactive are the calls of the source. The rule behind the calls is not given here.

Key:
Mus musculus [1] = test: Toxicity in mouse at 4.8 nmol, icv measured within 1.5 hrs post-drug administration; format: organism-based; conditions: in vivo, icv_or_intrathecal
[2] = Toxicity in mouse assessed as animal death at 2.4 nmol, icv; format: organism-based; conditions: in vivo, icv or intrathecal, read-out: Activity
[3] = biological target: Opioid receptors; mu/kappa/delta (Homo sapiens) (UniProt P41145+P41143+P35372); conditions: Brain, 1 uM
Description: Displacement of [3H]naloxone from opioid receptor (unknown origin) in brain homogenate at 1 uM to 10 nM

Mus musculus [4] = test: Residual inhibition of morphine-induced analgesia in mouse at 2.4 nmol, icv measured after 2 hrs by tail-flick assay; format: functional, organism-based

Sequence of Opioid receptors; mu/kappa/delta (Homo sapiens) (P35372 whole entry, looked up): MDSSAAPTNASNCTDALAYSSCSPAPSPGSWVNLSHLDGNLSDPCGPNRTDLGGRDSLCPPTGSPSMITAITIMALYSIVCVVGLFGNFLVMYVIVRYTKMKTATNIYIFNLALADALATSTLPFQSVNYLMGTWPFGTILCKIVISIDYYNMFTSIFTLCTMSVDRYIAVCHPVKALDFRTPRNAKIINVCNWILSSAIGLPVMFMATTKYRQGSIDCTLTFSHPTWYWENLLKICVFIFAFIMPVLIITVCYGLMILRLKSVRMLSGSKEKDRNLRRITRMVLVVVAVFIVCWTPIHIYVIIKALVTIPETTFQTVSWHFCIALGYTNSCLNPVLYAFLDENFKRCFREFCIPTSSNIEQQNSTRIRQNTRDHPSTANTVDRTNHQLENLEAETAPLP
Sequence of Opioid receptors; mu/kappa/delta (Homo sapiens) (P41143 whole entry, looked up): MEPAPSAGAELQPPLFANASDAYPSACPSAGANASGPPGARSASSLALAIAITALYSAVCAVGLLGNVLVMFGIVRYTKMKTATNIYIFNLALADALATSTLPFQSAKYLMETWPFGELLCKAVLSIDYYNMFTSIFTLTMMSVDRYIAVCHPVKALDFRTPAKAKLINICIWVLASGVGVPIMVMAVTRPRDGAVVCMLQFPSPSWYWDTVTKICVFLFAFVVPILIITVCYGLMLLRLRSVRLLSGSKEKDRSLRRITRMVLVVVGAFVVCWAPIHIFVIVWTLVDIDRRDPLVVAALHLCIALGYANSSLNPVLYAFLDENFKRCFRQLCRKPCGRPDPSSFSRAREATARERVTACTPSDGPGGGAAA
Sequence of Opioid receptors; mu/kappa/delta (Homo sapiens) (P41145 whole entry, looked up): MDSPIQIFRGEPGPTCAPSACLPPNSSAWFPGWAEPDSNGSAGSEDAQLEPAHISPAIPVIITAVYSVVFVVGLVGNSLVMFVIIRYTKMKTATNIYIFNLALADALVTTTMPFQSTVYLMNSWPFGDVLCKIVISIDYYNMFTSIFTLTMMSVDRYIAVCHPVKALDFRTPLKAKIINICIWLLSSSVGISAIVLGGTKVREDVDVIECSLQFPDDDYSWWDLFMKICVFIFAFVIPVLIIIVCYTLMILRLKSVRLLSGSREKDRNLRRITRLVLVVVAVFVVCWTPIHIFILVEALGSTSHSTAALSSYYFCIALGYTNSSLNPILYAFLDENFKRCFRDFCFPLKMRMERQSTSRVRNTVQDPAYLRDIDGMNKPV

For `Cl.Oc1ccc2c3c1O[C@H]1[C@H](N(CCCl)CCCl)CC[C@@]4(O)[C@@H](C2)N(CC2CC2)CC[C@]314`, the Activity (Mus musculus [1]) was 12% and the mortality [2] was 2%.
In the case of `CN1CC[C@]23CCCC[C@H]2[C@H]1Cc1ccc(O)cc13`, the inhibition [3] is reported as “Active”.
For `O=C1CC[C@@]2(O)[C@H]3Cc4ccc(O)c5c4[C@@]2(CCN3CC2CC2)[C@H]1O5`, the inhibition (Mus musculus [4]) was “inactive”.
